Measured values published in US20240118281A1, “ANTICANCER COMPOUNDS AND USES THEREOF” (University of Florida Research Foundation, Incorporated, priority 2021, published 2024).

What was measured:
AGR2 = target: T1, AGR2 (Homo sapiens, UniProt O95994); test: DDA-AGR2 binding assay, Streptavidin-Alkaline Phosphatase blot; parameters: made in house; host or cells: E. coli BL21(DE3), pET-45b(+)
T1 sequence (O95994 21-175): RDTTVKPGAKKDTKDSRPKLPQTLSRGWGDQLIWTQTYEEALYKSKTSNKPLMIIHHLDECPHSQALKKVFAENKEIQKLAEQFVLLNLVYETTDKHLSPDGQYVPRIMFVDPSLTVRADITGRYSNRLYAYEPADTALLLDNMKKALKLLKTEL
Method: Competent BL21(DE3) cells were transformed with either the AGR2/pET-45b(+) or AGR2 C81S/pET-45b(+) vectors. Protein expression was induced by the addition of 50 µM Isopropyl β-D-1-thiogalactopyranoside (Fisher Scientific, Fair Lawn, NJ) to bacterial cell cultures for 2.5 hours and shaking at 37° C. Bacterial cells were subsequently pelleted and dissolved in Mouse Tonicity Phosphate Buffered Saline (MTPBS) containing 1% Triton X-100 and sonicated for 20 seconds on ice, followed by centrifugation for 10 min at 4° C. to pellet cell debris. The supernatant was transferred to a new tube, followed by the addition of TALON Resin (Clontech, Mountain View, CA) and mixing on a Nutator for 30 min at 4° C. The TALON Resin was pelleted by centrifugation and washed twice with MTPBS and twice with MTPBS containing 30 mM Imidazole. Protein bound to the TALON Resin was eluted with 400 mM Imidazole and precipitated with 60% saturated ammonium sulfate. The precipitated protein was pelleted by centrifugation, dissolved in MTPBS containing 1 mM DTT and 1 mM EDTA, and subsequently dialyzed against a solution of MTPBS containing 10 μM DTT and 30% Glycerol.
(§1) Purified His6-AGR2 or His6-AGR2 C81S, as prepared above, or His6-AGR2 (PRO-580) or His6-AGR3 (PRO-242) obtained from ProSpec (New Brunswick NJ) were incubated with or without varying concentrations of the unlabeled DDA competitors, tcyDTDO or dMtcyDTDO, and 30 μM Biotin-GlyPyrDTDO or Biotin-PyrDTDO in buffer (20 mM HEPES (pH 7.4), 1 mM EDTA, 1 mM EGTA, 5% Glycerol, 1 nM Microcystin, 1 mM Na3VO4, and 40 mM Na2H2P2O7) containing 1% Triton-X 100 for 30 min at 37° C. […] Therefore, the two probes were used interchangeably. Reactions were stopped by boiling the samples in 2×-SDS-Sample Buffer containing 100 mM NEM for 10 min. Biotin-DDA labeling of protein was verified by blotting with Streptavidin-Alkaline Phosphatase (Rockland Immunochemicals, Inc., Limerick, PA). ERp44 (PRO-547) and PDIA1 (ENZ-262) were obtained from ProSpec and used in experiments examining the binding of these proteins to Biotin-PyrDTDO.

GRP78 = test: Endoplasmic reticulum stress (ERS) induction, immunoblot; format: cell-based; conditions: MDA-MB-468 cells, 24 h
Description: The BT20, BT474, BT549, MCF7, MDA-MB-231, MDA-MB-436, MDA-MB-468, HCC1143, HCC1500, HCC1569, HCC1937, HCC1954, Hs578t, and T47D cells lines were purchased from American Type Culture Collection (ATCC) (Manassas, VA). The HCI-001 cell line was derived from an ER-/PR-/HER2- patient-derived xenograft originally isolated from a patient as described previously (DeRose Y S, et al. Nat Med 2011; 17: 1514-1520). The HCI-001/LVM2 model was derived from the HCI-001 cell line by performing two rounds of selection for liver metastasis, as described previously (Wang M, et al. Cell Death Discovery 2019; 5: 153). Cell lines were grown in Dulbecco's Modified Eagle's Medium (GE Healthcare Life Sciences, Logan, UT) containing 10% fetal bovine serum (10% FBS—DMEM) in a humidified incubator with 5% CO2 at 37° C. Cell lysates were prepared as described previously (Law B K, et al. Mol Cell Biol. 2002; 22: 8184-8198). Immunoblot analysis was performed utilizing the following antibodies purchased from Cell Signaling Technology (Beverly, MA) [Akt, #4691; P-Akt[T308], #13038; ATF4, #11815; CHOP, #2895; Cleaved Caspase 8, #9496; DR4, #42533; DR5, #8074; EGFR, #4267; GRP78, #3177; HER3, #4754; PARP, #9532; PDIA1, #3501; XBP1s, #12782], from Santa Cruz Biotechnology (Santa Cruz, CA) [Actin, sc-47778; AGR2/3, sc-376653; AGR3, sc-390940; ERO1-a, sc-100805; and ERp44, sc-393687], or from Rockland Immunochemicals, Inc. (Limerick, PA), Streptavidin-Alkaline Phosphatase conjugated (SA-AP), S000-05.
To assess protein disulfide bond-mediated oligomerization, cells were treated with DDAs for 24 h in 10% FBS-DMEM. Cells were subsequently scraped directly into the media and pelleted by centrifugation. Cells were extracted directly into boiling 2×-SDS-Sample Buffer containing 100 mM NEM and boiled for 10 min. Samples were sonicated, followed by centrifugation for 20 min at room temperature. Samples were subsequently analyzed by SDS-PAGE and immunoblot.

AGR3 = target: T2, AGR3 (Homo sapiens, UniProt Q8TD06); test: DDA binding assay with AGR3; conditions: molar excess, pre-incubation with 600 μM, FIG. 2D
T2 construct: His6 (N); purchased ProSpec PRO-242
T2 sequence (Q8TD06 22-166): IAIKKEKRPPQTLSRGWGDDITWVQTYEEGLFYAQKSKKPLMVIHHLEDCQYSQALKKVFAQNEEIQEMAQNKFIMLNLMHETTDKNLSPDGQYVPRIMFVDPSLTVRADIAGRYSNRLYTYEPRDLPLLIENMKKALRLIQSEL
Method: as §1

SMILES: CO[C@H]1C[C@@H]2CS(=O)(=O)SC[C@H]2C[C@@H]1OC [dMtcyDTDO, dimethoxy-tcyDTDO]
- Ability to block Biotin-GlyPyrDTDO binding to AGR2, compared with tcyDTDO (AGR2; FIG. 2E, 9E-F): more effective competitor
- Competition with Biotin-GlyPyrDTDO binding to AGR2 (AGR2; molar excess, pre-incubation with 600 μM, FIG. 2D): partially prevented Biotin-GlyPyrDTDO binding
- Concentration at which induction of ERS (GRP78 elevation) was detected (GRP78; FIG. 1E right): 625 nM
- ERS at the same concentration (GRP78; compared with tcyDTDO, FIG. 1E left): greater ERS
- Competition with Biotin-GlyPyrDTDO binding to AGR3 (AGR3): partially prevented Biotin-GlyPyrDTDO binding
